Molecules are shown by their SMILES.

In the PolyMetriX glass transition set one finds glass transition temperature data, which are given here for 83 compounds.

Turning to `*/C(C)=[C](/*)[Ge]([CH3])([CH3])[CH3]` (repeat unit), the glass transition temperature amounted to 250.00 °C.

As for `*/C(C)=C(/*)[Si](C)(C)C` (repeat unit), the glass transition temperature stood at 75.00 °C.

Compound `*/C(C)=C(/*)[Si](C)(C)CCCCCC` (repeat unit) returned a glass transition temperature of 200.00 °C.

The compound `*C(=O)c1ccc(C(=O)N(*)c2ccccc2)c(Sc2ccccc2)c1` (repeat unit) returned a glass transition temperature of 152.00 °C.

Compound `*C(=O)c1cccc(C(=O)N(*)c2ccccc2)c1` (repeat unit) came in with a glass transition temperature of 148.00 °C.

`*CC(*)Cc1ccccc1` (repeat unit) returned a glass transition temperature of 70.00 °C.

`*CC(*)Cc1ccccc1C` (repeat unit) registered a glass transition temperature of 80.00 °C.

Regarding `*CC(*)OC(=O)/C=C/c1ccccc1` (repeat unit), the glass transition temperature amounted to 127.00 °C.

Turning to `*CC(*)OC(=O)C(C)(C)C(C)(C)CC` (repeat unit), the glass transition temperature was 90.00 °C.

In the case of `*CC(*)OC(=O)C(C)(C)CC(C)(C)C` (repeat unit), the glass transition temperature stood at 55.00 °C.

In turn, `*CC(*)OC(=O)C(C)(C)CCC` (repeat unit) yielded a glass transition temperature of 10.00 °C.

`*CC(*)OC(=O)C(F)(F)C(F)(F)C(F)(F)C(F)(F)C(F)(F)C(F)(F)C(F)(F)F` (repeat unit) had a glass transition temperature of -10.00 °C.

Turning to `*CC(*)OC(=O)C(F)(F)C(F)(F)C(F)(F)C(F)(F)F` (repeat unit), the glass transition temperature was 20.00 °C.

In the case of `*CC(*)OC(=O)C(F)(F)C(F)(F)C(F)(F)F` (repeat unit), the glass transition temperature was determined as 27.00 °C.

As for `*CC(*)OC(=O)C1(F)C(F)(F)C(F)(F)C(F)(F)C(F)(F)C1(F)F` (repeat unit), the glass transition temperature stood at 54.00 °C.

The compound `*CC(*)OC(=O)C1CCCCC1` (repeat unit) registered a glass transition temperature of 66.00 °C.

For the compound `*CC(*)OC(=O)c1ccc(C(C)C)cc1` (repeat unit), the glass transition temperature is 67.70 °C.

`*CC(*)OC(=O)c1cccc(Br)c1` (repeat unit) had a glass transition temperature of 57.50 °C.

`*CC(*)OC(=O)c1cccc(Cl)c1` (repeat unit) displayed a glass transition temperature of 61.8 °C.

Consider `*CC(*)OC(=O)c1ccccc1` (repeat unit), for which the glass transition temperature was determined as 70.40 °C.

In turn, `*CC(*)OCCOCCOCCOC` (repeat unit) displayed a glass transition temperature of -76.00 °C.

On to `*CC(*)OCCOc1ccc(/N=N/c2ccc(C#N)cc2)cc1` (repeat unit), for which the glass transition temperature stood at 61.00 °C.

Compound `*CC(*)OCCOc1ccc(C=C(C#N)C#N)cc1` (repeat unit) came in with a glass transition temperature of 38.00 °C.

With `*CC(*)SCC` (repeat unit), the glass transition temperature is -7.00 °C.

Compound `*CC(*)SCCCC` (repeat unit) came in with a glass transition temperature of -20.00 °C.

In turn, `*CC(*)c1c(Cl)cccc1Cl` (repeat unit) came in with a glass transition temperature of 165.00 °C.

`*CC(*)c1c(F)c(F)c(OC)c(F)c1F` (repeat unit) yielded a glass transition temperature of 94.00 °C.

With `*CC(*)c1cc(Br)ccc1OCC` (repeat unit), the glass transition temperature was 80.00 °C.

`*CC(*)c1cc(Br)ccc1OCCCCC` (repeat unit): the glass transition temperature is 49.00 °C.

Consider `*CC(*)c1cc(C(=O)OC)ccc1-c1ccc(OCCCCCCCC)cc1` (repeat unit), for which the glass transition temperature came to 126.00 °C.

For `*CC(*)c1cc(C(=O)OCCCC)ccc1-c1ccc(OCCCCCCCC)cc1` (repeat unit), the glass transition temperature worked out at 74.00 °C.

With `*CC(*)c1cc(C(=O)OCCCCCCCC)ccc1-c1ccc(OCCCCCCCC)cc1` (repeat unit), the glass transition temperature turned out to be 57.00 °C.

Regarding `*CC(*)c1cc(C(=O)Oc2ccc(OC)cc2)ccc1C(=O)Oc1ccc(OC)cc1` (repeat unit), the glass transition temperature is 115.00 °C.

For the compound `*CC(*)c1cc(C(=O)Oc2ccc(OCCCC)cc2)ccc1C(=O)Oc1ccc(OCCCC)cc1` (repeat unit), the glass transition temperature turned out to be 103.60 °C.

`*CC(*)c1cc(Cl)ccc1Cl` (repeat unit) displayed a glass transition temperature of 108.00 °C.

Take `*CC(*)c1cc[n+](CCCCCCCC)cc1` (repeat unit): the glass transition temperature was 206.20 °C.

`*CC(*)c1ccc(-c2cccc3nsnc23)cc1` (repeat unit) showed a glass transition temperature of 150.00 °C.

In the case of `*CC(*)c1ccc(B(Oc2ccc(-c3ccc(N(C)C)cc3)c3cccnc23)c2ccc(C(C)(C)C)cc2)cc1` (repeat unit), the glass transition temperature was found to be 230.00 °C.

For the compound `*CC(*)c1ccc(C(=O)CCCC)cc1` (repeat unit), the glass transition temperature was 70.00 °C.

As to `*CC(*)c1ccc(C(=O)Cc2ccccc2)cc1` (repeat unit), the glass transition temperature was found to be 78.00 °C.

In turn, `*CC(*)c1ccc(C(=O)N(C)C)cc1` (repeat unit) yielded a glass transition temperature of 125.00 °C.

With `*CC(*)c1ccc(C(=O)N2CCCCC2)cc1` (repeat unit), the glass transition temperature turned out to be 114.00 °C.

Regarding `*CC(*)c1ccc(C(=O)OCCC)cc1` (repeat unit), the glass transition temperature was found to be 92.00 °C.

As to `*CC(*)c1ccc(C(C)(C)O)cc1` (repeat unit), the glass transition temperature was found to be 170.00 °C.

On to `*CC(*)c1ccc(C(C)C)cc1` (repeat unit), for which the glass transition temperature was 62.40 °C.

`*CC(*)c1ccc(C([Si](C)(C)C)[Si](C)(C)C)cc1` (repeat unit) registered a glass transition temperature of 156.00 °C.

`*CC(*)c1ccc(C)nc1` (repeat unit) came in with a glass transition temperature of 136.00 °C.

Turning to `*CC(*)c1ccc(CC)cc1` (repeat unit), the glass transition temperature turned out to be 71.40 °C.

On to `*CC(*)c1ccc(CCCCCCCCCC)cc1` (repeat unit), for which the glass transition temperature was -65.00 °C.

Compound `*CC(*)c1ccc(CCCCCCCCCCCC)cc1` (repeat unit) returned a glass transition temperature of -52.00 °C.

Compound `*CC(*)c1ccc(CCCCCCCCCCCCCCCCCC)cc1` (repeat unit) showed a glass transition temperature of 32.00 °C.

In turn, `*CC(*)c1ccc(COCC(CC)CCCC)cc1` (repeat unit) gave a glass transition temperature of -23.00 °C.

Regarding `*CC(*)c1ccc(COCC(F)(F)C(F)(F)C(F)(F)C(F)(F)F)cc1` (repeat unit), the glass transition temperature stood at 23.00 °C.

`*CC(*)c1ccc(COCCC(F)(F)C(F)(F)C(F)(F)C(F)(F)C(F)(F)C(F)(F)F)cc1` (repeat unit): the glass transition temperature is 18.00 °C.

In turn, `*CC(*)c1ccc(COCCOCC)cc1` (repeat unit) gave a glass transition temperature of 0.00 °C.

On to `*CC(*)c1ccc(COc2ccc(-c3ccc(-c4ccc(C)cc4)c4nsnc34)cc2)cc1` (repeat unit), for which the glass transition temperature came to 117.00 °C.

For `*CC(*)c1ccc(COc2ccc(-c3ccc(-c4ccc(C)s4)c4nsnc34)cc2)cc1` (repeat unit), the glass transition temperature was determined as 130.00 °C.

Regarding `*CC(*)c1ccc(COc2ccc(-c3ccc(C#N)cc3)cc2)cc1` (repeat unit), the glass transition temperature stood at 132.00 °C.

In turn, `*CC(*)c1ccc(Cl)c(C)c1` (repeat unit) had a glass transition temperature of 114.00 °C.

For the compound `*CC(*)c1ccc(Cl)cc1C` (repeat unit), the glass transition temperature was determined as 145.00 °C.

The compound `*CC(*)c1ccc(O)c(OC)c1` (repeat unit) came in with a glass transition temperature of 142.00 °C.

In turn, `*CC(*)c1ccc([Si](C)(C)C)cc1` (repeat unit) registered a glass transition temperature of 136.00 °C.

`*CC(*)c1ccc([Si](C)(C)OC(C)C)cc1` (repeat unit) registered a glass transition temperature of 180.00 °C.

Consider `*CC(*)c1ccc([Si](C)(C)O[Si](C)(C)O[Si](C)(C)C)cc1` (repeat unit), for which the glass transition temperature was -27.00 °C.

`*CC(*)c1ccc([Si](C)(O[Si](C)(C)C)O[Si](C)(C)C)cc1` (repeat unit) displayed a glass transition temperature of 54.00 °C.

`*CC(*)c1cccc(B(O[Si](C)(C)C)O[Si](C)(C)C)c1` (repeat unit): the glass transition temperature stood at 35.00 °C.

On to `*CC(*)c1cccc(Br)c1` (repeat unit), for which the glass transition temperature turned out to be 102.00 °C.

For the compound `*CC(*)c1cccc(Cl)c1` (repeat unit), the glass transition temperature turned out to be 90.00 °C.

`*CC(*)c1cccc(F)c1` (repeat unit) yielded a glass transition temperature of 86.00 °C.

The compound `*CC(*)c1cccc(OC(C)=O)c1` (repeat unit) showed a glass transition temperature of 76.00 °C.

`*CC(*)c1cccc2c1OCO2` (repeat unit) registered a glass transition temperature of 119.00 °C.

For `*CC(*)c1ccccc1C(=O)Nc1ccccc1` (repeat unit), the glass transition temperature amounted to 191.00 °C.

`*CC(*)c1ccccc1C(=O)O` (repeat unit) showed a glass transition temperature of 177.00 °C.

The compound `*CC(*)c1ccccc1C(=O)OC` (repeat unit) displayed a glass transition temperature of 130.00 °C.

Turning to `*CC(*)c1ccccc1C(=O)OC(C)C` (repeat unit), the glass transition temperature worked out at 146.00 °C.

Take `*CC(*)c1ccccc1C(=O)OCC` (repeat unit): the glass transition temperature amounted to 118.00 °C.

`*CC(*)c1ccccc1C(=O)OCCC` (repeat unit) returned a glass transition temperature of 108.00 °C.

In turn, `*CC(*)c1ccccc1C(=O)OCCC(C)C` (repeat unit) registered a glass transition temperature of 68.00 °C.

Take `*CC1CCCC(CNC(=O)c2cc(C(=O)N*)cc(C(C)(C)C)c2)C1` (repeat unit): the glass transition temperature was 200.00 °C.

In the case of `*CCCCCCCCCCCCNC(=O)C(OC)C(OC)C(=O)N*` (repeat unit), the glass transition temperature worked out at 84.00 °C.

`*CCCCCCOc1ccc(C(=O)N(C(=O)c2ccc(O*)cc2)c2ccc(Oc3ccccc3)cc2)cc1` (repeat unit): the glass transition temperature stood at 78.00 °C.

`*Oc1ccc(C(C)(C)c2ccc(OC(=O)NC(=O)c3cc(C(=O)NC(*)=O)cc(C(C)(C)C)c3)cc2)cc1` (repeat unit) returned a glass transition temperature of 123.50 °C.

`*Oc1ccc(Oc2ccc(/C(=N\c3ccccc3)c3ccc(Oc4ccc(Oc5cccc(*)n5)cc4)cc3)cc2)cc1` (repeat unit) gave a glass transition temperature of 135.00 °C.
